Source: paper PMC5172606 (Archives of biochemistry and biophysics, 2016)

Target: T1, human soluble epoxide hydrolase (sEH) (Homo sapiens, UniProt P34913)
T1 sequence (P34913 1-555): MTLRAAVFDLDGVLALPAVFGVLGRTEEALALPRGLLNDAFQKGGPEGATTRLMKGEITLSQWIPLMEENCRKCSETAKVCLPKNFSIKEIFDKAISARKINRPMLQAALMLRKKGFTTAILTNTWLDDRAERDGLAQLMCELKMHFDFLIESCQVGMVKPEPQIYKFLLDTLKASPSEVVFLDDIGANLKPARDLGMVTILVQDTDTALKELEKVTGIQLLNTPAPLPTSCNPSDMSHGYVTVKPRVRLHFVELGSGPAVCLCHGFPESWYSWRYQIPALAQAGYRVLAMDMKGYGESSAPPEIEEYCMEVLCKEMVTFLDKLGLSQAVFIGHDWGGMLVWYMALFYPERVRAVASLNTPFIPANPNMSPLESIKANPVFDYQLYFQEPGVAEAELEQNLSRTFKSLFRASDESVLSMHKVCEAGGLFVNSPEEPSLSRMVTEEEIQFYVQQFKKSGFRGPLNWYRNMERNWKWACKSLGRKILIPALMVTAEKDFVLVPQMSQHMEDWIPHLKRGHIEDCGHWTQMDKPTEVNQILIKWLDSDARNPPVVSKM
Experiment: radiometric assay with [3H]-tDPPO substrate
Type: biochemical

IC50: 20 ± 0.5 nM
Substance: UC2389
